Laboratory results reported in patent publication US12286455B2, “Anthelmintic depsipeptide compounds” (BOEHRINGER INGELHEIM ANIMAL HEALTH USA INC., priority 2015, dated 2025).

Assays:
[1] = system: Dirofilaria immitis R isolate (reduced sensitivity to macrocyclic lactones); assay: Method D study 1: efficacy against induced D. immitis infection in beagle dogs (R isolate); format: in vivo; settings: beagles
[2] = system: Dirofilaria immitis S isolate (sensitive to macrocyclic lactones); assay: Method D study 2: efficacy against induced D. immitis infection in beagle dogs (S isolate); format: in vivo; settings: beagles
[3] = oral solution 2.5 mg/kg + ivermectin 6 μg/kg, days 0, 32, 60, 90 & 119, necropsy Day 150

| Compound | Efficacy [1, 3] [%] | further results |
| --- | --- | --- |
| CC(C)C[C@H]1C(=O)O[C@H](C)C(=O)N(C)[C@@H](CC(C)(C)F)C(=O)O[C@H](Cc2ccc(C(F)(F)F)cc2)C(=O)N(C)[C@@H](CC(C)C)C(=O)O[C@H](C)C(=O)N(C)[C@@H](CC(C)(C)F)C(=O)O[C@H](Cc2ccc(C(F)(F)F)cc2)C(=O)N1C [Compound 4-18] | 100 | – |
| CC(C)C[C@H]1C(=O)O[C@H](C)C(=O)N(C)[C@@H](CC(C)(C)F)C(=O)O[C@H](Cc2ccc(N3CCOCC3)cc2)C(=O)N(C)[C@@H](CC(C)C)C(=O)O[C@H](C)C(=O)N(C)[C@@H](CC(C)(C)F)C(=O)O[C@H](Cc2ccc(N3CCOCC3)cc2)C(=O)N1C [Compound 6-18] | 100 | – |
| CC(C)C[C@H]1C(=O)O[C@H](C)C(=O)N(C)[C@@H](CC(C)(C)F)C(=O)O[C@H](Cc2ccc(C3CCOCC3)cc2)C(=O)N(C)[C@@H](CC(C)C)C(=O)O[C@H](C)C(=O)N(C)[C@@H](CC(C)(C)F)C(=O)O[C@H](Cc2ccc(C3CCOCC3)cc2)C(=O)N1C [Compound 7-18] | – | Efficacy ([2]; oral solution 0.5 mg/kg, days 0, 30, 60, 90 & 120, necropsy Day 155): 100%; Efficacy ([2]; oral solution 2.5 mg/kg, days 0, 30, 60 & 154, necropsy Day 155): 100%; Efficacy ([1]; oral solution 1.0 mg/kg + ivermectin 6 μg/kg, days 0, 32, 60, 90 & 119, necropsy Day 150): 100% |
| CC(C)C[C@H]1C(=O)O[C@H](Cc2ccc(C3CCOCC3)cc2)C(=O)N(C)[C@@H](CC(C)C)C(=O)O[C@H](C)C(=O)N(C)[C@@H](CC(C)C)C(=O)O[C@H](Cc2ccc(C3CCOCC3)cc2)C(=O)N(C)[C@@H](CC(C)C)C(=O)O[C@H](C)C(=O)N1C [Compound 7-27] | 100 | – |
| CC(C)C[C@H]1C(=O)O[C@H](Cc2ccc(N3CCOCC3)cc2)C(=O)N(C)[C@@H](CC(C)C)C(=O)O[C@H](C)C(=O)N(C)[C@@H](CC(C)C)C(=O)O[C@H](Cc2ccc(N3CCOCC3)cc2)C(=O)N(C)[C@@H](CC(C)C)C(=O)O[C@H](C)C(=O)N1C [emodepside, reference compound] | 98.8 | Efficacy ([1]; oral solution 2.5 mg/kg + ivermectin 6 μg/kg, days 0, 32, 60, 90 & 119, necropsy Day 150, listed as Emodepside): 98.8% |
